# Laboratory results as given in ChEMBL document CHEMBL3399949, “Fingerprint-based consensus virtual screening towards structurally new 5-HT(6)R ligands” (Bioorg Med Chem Lett, 2015).
# Assay: Dissociation constant, pKa of the compound
# Assay type: physicochemical
row,SMILES,pKa
1,Brc1ccc2c(c1)c1c3n2CCN(Cc2ccccc2)C3CCC1 (centres undefined),6.95
2,Cc1ccc(S(=O)(=O)N/N=C2\CCCc3c2[nH]c2ccc(Cl)cc32)cc1,-0.33
3,NC(=O)C1CCN(c2c(S(=O)(=O)c3ccccc3)cnc3ccc(Cl)cc23)CC1,3.05
4,Cc1ccc(S(=O)(=O)c2cnc3ccc(F)cc3c2SCc2ccc(Cl)cc2)cc1,-0.25
5,COCCn1c(C)c(C)c(S(=O)(=O)c2ccc(Cl)cc2)c1N,-0.59
6,Cc1ccc(Cl)cc1N(C)C(=O)c1cn(-c2ccc(F)cc2F)c(=O)c2ccccc12,-1.07

# Results, then the compound that gave them:
row,pKa,SMILES
1,3.48,O=S(=O)(Nc1cc(Sc2cccc3cccnc23)c(O)c2ccccc12)c1ccc(F)cc1
2,3.48,O=S(=O)(Nc1cc(Sc2cccc3cccnc23)c(O)c2ccccc12)c1ccccc1
3,1.93,O=S(=O)(Nc1ccn(Cc2cccc3ccccc23)n1)c1ccc(Br)s1
4,5.56,O=S(=O)(Nc1cc2c(c3ccccc13)OC1(N3CCOCC3)CCCCC21)c1ccccc1 (centres undefined)
5,-0.69,Nc1c(S(=O)(=O)c2ccccc2)sc2nc(-c3ccccc3)cc(-c3ccccc3)c12
6,5.3,O=S(=O)(Nc1ccccc1-c1nccc2ccccc12)c1ccc(Cl)cc1
7,-1.37,COc1cccc(-n2cc(C(=O)N(C)c3cccc(Cl)c3)c3ccccc3c2=O)c1
8,2.34,Cc1ccc(Nc2c(S(=O)(=O)c3ccccc3)cnc3ccc(Cl)cc23)cc1
